This is an account of results in patent US10017509B2, “Macrocylic pyrimidine derivatives” (Janssen Pharmaceutica NV, priority 2014, dated 2018).

The target in assay [1] is T1, EF2K (Homo sapiens, UniProt O00418).
T1 construct: host or cells: LN-229 cell lysate
T1 sequence (O00418 1-725): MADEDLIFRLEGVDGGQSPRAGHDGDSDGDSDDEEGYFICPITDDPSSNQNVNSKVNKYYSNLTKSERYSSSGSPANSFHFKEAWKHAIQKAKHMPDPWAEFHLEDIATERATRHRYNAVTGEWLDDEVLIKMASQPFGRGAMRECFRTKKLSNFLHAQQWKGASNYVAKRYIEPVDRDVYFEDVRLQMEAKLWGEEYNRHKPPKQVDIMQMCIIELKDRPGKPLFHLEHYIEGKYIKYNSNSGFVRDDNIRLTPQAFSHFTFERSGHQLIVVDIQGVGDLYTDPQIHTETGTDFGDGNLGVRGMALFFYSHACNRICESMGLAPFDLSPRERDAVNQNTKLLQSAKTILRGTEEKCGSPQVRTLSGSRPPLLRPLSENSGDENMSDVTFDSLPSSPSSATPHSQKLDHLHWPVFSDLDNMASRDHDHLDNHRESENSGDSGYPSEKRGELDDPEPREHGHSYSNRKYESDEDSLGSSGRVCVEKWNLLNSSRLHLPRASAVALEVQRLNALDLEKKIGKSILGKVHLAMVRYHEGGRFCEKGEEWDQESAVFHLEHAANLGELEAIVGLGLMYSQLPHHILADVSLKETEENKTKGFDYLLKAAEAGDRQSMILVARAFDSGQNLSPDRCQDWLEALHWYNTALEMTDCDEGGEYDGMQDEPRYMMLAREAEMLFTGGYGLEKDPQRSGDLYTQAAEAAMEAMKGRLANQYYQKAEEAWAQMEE
Nature of the assay: Biochemical EF2K lysate-based kinase assay (AlphaLISA p-eEF2 Thr56). Conditions: pIC50 = -log IC50 (M), read-out: eEF2K_C_alphalisa pIC50 (converted). The text has this:
Biochemical EF2K Lysate-Based Kinase Assay
LN-229 cells were purchased from ATCC (CRL-2611); these are glioblastoma cells. Cell lysates from LN229 were used in this kinase assay to provide both the kinase and the substrate (EF2). The AlphaLISA p-eEF2 (Thr56) detection assay was developed using a sandwich assay format with two specific antibodies recognizing different epitopes of the target, including one antibody against the phosphorylation site of interest. One anti-eEF2 antibody was conjugated onto AlphaLISA Acceptor beads, while the second antibody was biotinylated and captured by streptavidin coated Donor beads.
Compound was mixed with LN-229 cell lysates in the presence of a kinase buffer (e.g. HEPES) at a pH of 6.6, containing 10 mM Mg^2+ (e.g. magnesium acetate) and 10 mM adenosine-tri-phosphate (ATP) and incubated at room temperature for 15 minutes. The kinase reaction was stopped with excess ethylenediaminetetraacetic acid disodium salt and the biotinylated-anti phospho eEF2 antibody (3 nM) was added for 1 hour. Then the anti-EF2 acceptor beads (10 μg/ml) as well as the streptavidin coated donor beads (20 μg/ml) were added for 1 hour, and the AlphaLISA signal was measured in an Envision instrument once, left overnight, and measured again for the final read.
(§1) (pIC50 is −log IC50 where IC50 represents the concentration expressed in M at which the test compound gives 50% inhibition)
Background: In Alpha technology, singlet oxygen from a donor bead excites a nearby acceptor bead.

The target in assay [2] is T1, EF2K. In words: EF2K cell-based assay (P-EF2 AlphaLISA, 2-deoxyglucose stimulated MCF10A cells). Particulars: 2.5 mM 2-deoxyglucose stimulated, P-EF2 Thr56, pIC50 = -log IC50 (M), read-out: eEF2K_C_PThr56 pIC50 (converted). As for the experimental part: In this assay, 2.5 mM 2-deoxyglucose was used to deplete intracellular ATP and activate 5′ adenosine monophosphate-activated protein kinase (AMPK) in the immortalized epithelial breast cell lines, MCF10A. MCF 10A cells were purchased from ATCC (CRL-10317).
MCF10A cells are seeded at a density of 1.25×10^5 Cells/ml at 100 μl/well in a 96-well plate and incubated for 24 hours (37° C., 5% CO2). Compound is added for 1 hour, and cell are stimulated with 2.5 mM of 2-deoxy-glucose for 4 hours. Medium is then removed, and cells are lysed in an ice-cold buffer M-PER (Thermo Scientific, 78501), containing protease and phosphatase inhibitors. P-EF2 levels are determined in these lysates using the P-EF2 AlphaLISA described above.
as §1

Assay [3] has as its target Vps34 (PIK3C3 lipid kinase) (Homo sapiens, UniProt Q8NEB9). Nature of the assay: Biochemical Vps34 lipid kinase assay (ADP-Glo). Particulars: for remaining activity at 1 µM: 1 h, read-out: VPS34_1microM_% of cntrl; for IC50: serial half-log dilution 10 μM to 0.3 nM, pIC50 = -log IC50 (M). As for the experimental part:
Biochemical Vps34 Lipid Kinase Assay
A non-radiometric kinase assay (ADP-Glo™ Assay, Promega, Madison, Wi, USA) was used for measuring the kinase activity of the PIK3C3 lipid kinase. All kinase assays were performed in 96-well half-area microtiter plates in a 25 μl reaction volume. The reaction cocktail was pipetted in 3 steps in the following order: • 10 μl of ATP solution (in assay buffer, see below) • 5 μl of test sample in 5% DMSO 10 μl of enzyme/substrate mixture
All lipid kinase assays contained 50 mM HEPES (4-(2-hydroxyethyl)-1-piperazineethanesulfonic acid)-NaOH, pH 7.5, 1 mM EGTA ((ethylene glycol tetraacetic acid), 100 mM NaCl, 0.03% CHAPS (3-[(3-Cholamidopropyl)dimethylammonio]-1-propanesulfonate), 2 mM DTT (Dithiothreitol), 20 μM ATP (corresponding to the apparent ATP-Km), kinase (7.6 nM) and substrate (50 μM). The assay for PIK3C3 additionally contained 3 mM MnCl2.
The reaction cocktails were incubated at 30° C. for 60 minutes. The reaction was stopped with 25 μl ADP-Go™ reagent per well. Plates were incubated for 40 minutes at room temperature, followed by addition of 50 μl kinase detection reagent per well and incubation for 60 minutes at room temperature. Signal was determined with a microplate luminescence reader (Victor, Perkin Elmer). The assay was either performed using a single dose of compound (1 μM final concentration in the assay reaction) with resulting data expressed as residual activity compared to control (DMSO), or using a serial (half-log) dilution of compounds starting at 10 μM and down to 0.3 nM (final concentrations in the assay) with data expressed as the pIC50.
as §1
For orientation: ADP-Glo first removes unused ATP, then detects ADP through luciferase.

The mark [4] stands for this setting: single dose 1 μM compound, residual activity compared to control (DMSO).

SMILES strings stand for the structures.

Vps34 (PIK3C3 lipid kinase), sequence (Q8NEB9 whole entry, species assumed): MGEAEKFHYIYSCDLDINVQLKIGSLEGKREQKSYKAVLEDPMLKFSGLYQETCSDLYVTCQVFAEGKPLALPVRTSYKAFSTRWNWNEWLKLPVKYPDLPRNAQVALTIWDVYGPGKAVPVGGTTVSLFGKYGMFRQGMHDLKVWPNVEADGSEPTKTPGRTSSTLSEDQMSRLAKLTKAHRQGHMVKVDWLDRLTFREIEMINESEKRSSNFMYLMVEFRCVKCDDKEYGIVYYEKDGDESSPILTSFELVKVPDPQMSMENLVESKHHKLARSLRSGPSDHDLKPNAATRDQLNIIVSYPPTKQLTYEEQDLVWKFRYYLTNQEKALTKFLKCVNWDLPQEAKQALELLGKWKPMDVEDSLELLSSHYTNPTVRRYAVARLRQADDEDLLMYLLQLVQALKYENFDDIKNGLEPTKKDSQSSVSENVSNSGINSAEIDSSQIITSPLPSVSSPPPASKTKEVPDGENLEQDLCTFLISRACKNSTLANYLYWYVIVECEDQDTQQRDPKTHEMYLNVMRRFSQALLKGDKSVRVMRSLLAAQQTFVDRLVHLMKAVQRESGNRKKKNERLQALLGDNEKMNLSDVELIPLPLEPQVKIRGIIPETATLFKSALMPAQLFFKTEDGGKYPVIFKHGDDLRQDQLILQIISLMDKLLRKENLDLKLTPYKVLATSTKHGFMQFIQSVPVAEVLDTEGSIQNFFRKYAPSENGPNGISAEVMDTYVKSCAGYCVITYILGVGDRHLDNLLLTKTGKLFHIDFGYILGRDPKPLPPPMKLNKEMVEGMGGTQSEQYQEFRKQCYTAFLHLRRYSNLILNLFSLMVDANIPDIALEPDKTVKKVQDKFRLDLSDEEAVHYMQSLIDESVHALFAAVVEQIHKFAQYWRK

For the compound `CN1CCCNc2ccc(cn2)-c2ccnc(n2)Nc2cccc(c2)CN2CCC(CC2)CC1=O` [Compound 124], the IC50 in assay [1] and in assay [2] was more than 3.02e-05 M in each case. Moreover, in assay [3] (setting [4]), the remaining activity at 1 µM worked out at 53.2%.
For the compound `O=C1CN2CCN(CC2)Cc2cccc(c2)Nc2nccc(n2)-c2ccc(nc2)CN(CC2CCCO2)CCN1` (stereo not drawn) [Compound 40], the IC50 in assay [1] was 1.35e-07 M; in assay [2], approximately 8.13e-07 M; in assay [3], 2.24e-07 M. Also, the remaining activity at 1 µM in assay [3] (setting [4]) worked out at 17.7%.
As to `Cc1cc2cc(c1)Nc1nccc(n1)-c1ccc(nc1)N(C)CCCN(C)C(=O)CN1CCN(CC1)C2` [Compound 8], the IC50 is 1.41e-05 M in assay [1] and more than 3.02e-05 M in assay [2]. In addition, the remaining activity at 1 µM in assay [3] (setting [4]) was found to be 41.1%.
For the compound `O=C1CN2CCN(Cc3cccc(c3)Nc3nccc(n3)-c3ccc(nc3)NCCCN1)C(C(F)(F)F)C2` (stereo not drawn) [Compound 50], the IC50 was 1.12e-07 M in assay [1], 4.9e-06 M in assay [2] and 3.98e-07 M in assay [3]. Also, the remaining activity at 1 µM in assay [3] (setting [4]) was determined as 12.4%.
Turning to `O=C1CN2CCCN(CC2)Cc2cccc(c2)Nc2nccc(n2)-c2ccc(nc2)NCCCN1` [Compound 56], the IC50 was 4.07e-06 M in assay [1], 4.47e-06 M in assay [2] and 1.26e-08 M in assay [3]. In assay [3] (setting [4]), the remaining activity at 1 µM stood at 3.19%.
Regarding `CN1CCN(CCOCC2CN3CCN2Cc2cccc(c2)Nc2nccc(n2)-c2ccc(nc2)N(C)CCCN(C)C(=O)C3)CC1` (stereo not drawn) [Compound 106], the values for the IC50 in assay [1] and in assay [2] were 3.02e-07 M and 1.66e-05 M, respectively. Further, the remaining activity at 1 µM in assay [3] (setting [4]) was 36.3%.
Regarding `CN1CCCNc2ccc(cn2)-c2ccnc(n2)Nc2cccc(c2)CN2CCN(CC1=O)C(=O)C2` [Compound 127], the IC50 in assay [1] is 3.72e-06 M; in assay [2], more than 3.02e-05 M; in assay [3], 3.55e-07 M. Besides, the remaining activity at 1 µM in assay [3] (setting [4]) turned out to be 19.2%.
Turning to `O=C1NCCCNc2ccc(cn2)-c2ccnc(n2)Nc2cccc(c2)CN2CCN1CC2` [Compound 130], the IC50 is more than 3.02e-05 M in assay [1], more than 3.02e-05 M in assay [2] and 2.4e-07 M in assay [3]. In addition, the remaining activity at 1 µM in assay [3] (setting [4]) came to 21%.
On to `O=C1CN2CCN(Cc3cccc(c3)Nc3nccc(n3)-c3ccc(nc3)NCCCN1)C(CO)C2` (single isomer, unassigned) [Compound 48], for which the figures for the IC50 in assay [1], in assay [2] and in assay [3] were 5.5e-06 M, more than 3.02e-05 M and 4.27e-08 M, respectively. For the same compound, the VPS34_1microM_% of cntrl in assay [3] (setting [4]) is listed as 3.34 % of cntrl.
Consider `N#CCCN1CCCNC(=O)CN2CCN(Cc3cccc(c3)Nc3nccc(n3)-c3ccc1nc3)C(CO)C2` (stereo not drawn) [Compound 54], for which the IC50 in assay [1] is 9.12e-07 M; in assay [2], more than 3.02e-05 M; in assay [3] it was 8.51e-08 M. For the same compound, the remaining activity at 1 µM in assay [3] (setting [4]) was found to be 4.02%.
Turning to `O=C1CC2CN(CCN2)Cc2cccc(c2)Nc2nccc(n2)-c2ccc(nc2)NCCCN1` (stereo not drawn) [Compound 70], the IC50 in assay [1] was 6.03e-06 M; in assay [2], more than 3.02e-05 M; in assay [3] it was 1.2e-08 M. The remaining activity at 1 µM in assay [3] (setting [4]) was 7.38%.
Turning to `NS(=O)(=O)N1CCNC(=O)CN2CCN(CC2)Cc2cccc(c2)Nc2nccc(n2)-c2ccc(nc2)C1` [Compound 134], the IC50 was 1.29e-06 M in assay [1], more than 1e-05 M in assay [2] and 6.46e-08 M in assay [3]. In addition, the remaining activity at 1 µM in assay [3] (setting [4]) came out at 4.78%.
Regarding `CN1CCCNC(=O)CC2CCN(CC2)Cc2cccc(c2)Nc2nccc(n2)-c2ccc1nc2` [Compound 125], the IC50 in assay [1] is 1.58e-05 M; in assay [2] it was more than 3.02e-05 M; in assay [3] it was 3.39e-07 M. Moreover, the remaining activity at 1 µM in assay [3] (setting [4]) was 28.4%.
Take `CN1CCN2Cc3cccc(c3)Nc3nccc(n3)-c3ccc(nc3)NCCCNC(=O)CC1C2` (stereo not drawn) [Compound 71]: the IC50 in assay [1] was 7.59e-06 M; in assay [2] it was more than 3.02e-05 M; in assay [3] it was 1.74e-08 M. Moreover, the remaining activity at 1 µM in assay [3] (setting [4]) is 12%.
With `O=C1CN2CCN(CC2)Cc2cccc(c2F)Nc2nccc(n2)-c2ccc(nc2)NCCCN1` [Compound 4], the IC50 in assay [1] is 8.32e-08 M; in assay [2], 8.71e-06 M; in assay [3] it was 4.79e-07 M. Moreover, the remaining activity at 1 µM in assay [3] (setting [4]) was 29.3%.
Consider `CN1CCCN(C)c2ccc(cn2)-c2ccnc(n2)Nc2cccc(c2)CN2CCN(CC2)CC1=O` [Compound 1], for which the IC50 in assay [1] is 7.59e-08 M; in assay [2] it was 2.95e-06 M; in assay [3] it was 1.55e-06 M.
For `O=C1CN2CCN(CC2)Cc2cccc(c2)Nc2nccc(n2)-c2ccc(nc2)CN(CC2CC2)CCN1` [Compound 35] the same measures were 9.33e-09 M, 1.32e-07 M and 7.76e-08 M.
As for `CC(C)CN1CCNC(=O)CN2CCN(CC2)Cc2cccc(c2)Nc2nccc(n2)-c2ccc(nc2)C1` [Compound 38], the values for the IC50 in assay [1], in assay [2] and in assay [3] were 8.91e-09 M, 1.86e-07 M and 7.76e-08 M, respectively.
For the compound `N#Cc1ccc2cc1CN1CCN(CC1)CC(=O)NCCCNc1ccc(cn1)-c1ccnc(n1)N2` [Compound 14], the IC50 in assay [1] is 7.08e-08 M; in assay [2], 7.59e-06 M; in assay [3], 1.05e-07 M. Also, the remaining activity at 1 µM in assay [3] (setting [4]) came to 3.37%.
As for `CN1CCN(C)c2ccc(cn2)-c2ccnc(n2)Nc2cccc(c2)CN2CCNC(C2)C1=O` (stereo not drawn) [Compound 68], the IC50 was 2e-05 M in assay [1] and 7.76e-07 M in assay [3]. In addition, in assay [3] (setting [4]), the remaining activity at 1 µM came to 28.4%.
Consider `CN1CCCN(C)c2ccc(cn2)-c2ccnc(n2)Nc2cccc(c2)CN2CCNC(C2)C1=O` (stereo not drawn) [Compound 74], for which the results for the IC50 in assay [1] and in assay [3] were 2.04e-05 M and 4.79e-07 M, respectively. Besides, the remaining activity at 1 µM in assay [3] (setting [4]) turned out to be 20.7%.
For `CN1CCN(C)c2ccc(cn2)-c2ccnc(n2)Nc2cccc(c2)CN2CCN(C)C(C2)C1=O` (stereo not drawn) [Compound 69] the same measures were more than 3.02e-05 M, 2.24e-06 M and 22.8%.
As for `CC(C)N1CCN(C(C)C)c2ccc(cn2)-c2ccnc(n2)Nc2cccc(c2)CN2CCN(CC2)CC1=O` [Compound 121], the IC50 in assay [1] was 1.78e-05 M. Moreover, the remaining activity at 1 µM in assay [3] (setting [4]) came to 34.1%.
Take `CN1CCCN(C)c2ccc(cn2)-c2ccnc(n2)Nc2cccc(c2)CN2CCN(CC2)C1=O` [Compound 76]: the results for the IC50 in assay [1] and in assay [3] were 2.34e-07 M and 3.47e-07 M, respectively. For the same compound, in assay [3] (setting [4]), the remaining activity at 1 µM stood at 8.71%.
